In patent US20240269170A1, “Treatment of Inflammatory Conditions or Diseases” (Queen Mary University of London, priority 2021, published 2024):

System: K/B×N serum induced arthritis in C57BL/6 mice
Assay: Sustained K/B×N serum induced arthritis, transfer of monocytes from arthritic mice incubated with MCTR3
Type: in vivo, mouse
Experimental: (C-D) K/B×N serum (100 μL, i.p.) was administered to C57BL/6 mice on day 0, 2 and 9 to induce and prolong inflammatory arthritis and, on day 12, mice were treated i.v. with 2×10^6 monocytes isolated from arthritic mice and incubated with either vehicle (PBS+0.1% EtOH) or 1 nM MCTR3 for 90 min at 37° C. Disease course was monitored daily by assessing C) clinical scores and D) oedema. Results are mean±SEM. and expressed as percent change from day of treatment. n=9 per group from two distinct experiments. (E) On day 22 hind paws were harvested joints were fixed, sectioned, stained using H&E stain and leukocyte infiltration evaluated. Top and centre panels present representative images from each experimental group; bottom panel Quantitation of the scores in each of the group. Results are mean±SEM. n=8 mice per group. Statistical differences were evaluated using Mann-Whitney U test. IFP=intrapatellar fat, M=meniscus, TB=Tibia, PF=Pannus formation, arrows denote leukocyte infiltration. (F-G) Paws were harvested 10 days after treatment and lipid mediator profiles were determined using LC-MS/MS-based lipid mediator profiling and evaluated using PLS-DA. (F) scores plot with highlighted regions denoting the clusters representing cells from each group (G) VIP scores for top 15 mediators. Each dot in the score plot represents a separate mouse.
FIG. 4: Regulation of joint reparative pathways in mice receiving MCTR3-trained monocytes. K/B×N serum (100 μL, i.p.) was administered to C57BL/6 mice on day 0, 2 and 9 to induce and prolong inflammatory arthritis and, on day 12, mice were treated i.v. with 2×10^6 monocytes isolated from arthritic mice and incubated with either vehicle (PBS+0.1% EtOH) or 1 nM MCTR3 for 90 min. (A-C) On day 22 hind paws were harvested, fixed, and stained to evaluate A) proteoglycan content using Safranin-O staining; B) Col 2 and C) Col X expression was evaluated using immunofluorescence. Left panels present representative images from each experimental group, right panels provide a quantitative evaluation of the staining. Results are expressed as percent change vs Monocyte group. n=7-8 mice per group. Statistical differences were evaluated using Wilcoxon signed rank test. (D-I) Hind paws were also collected on day 22 to evaluate the expression of the indicated genes was evaluated using quantitative realtime PCR. Results are from n=5 mice per group. Statistical differences were evaluated using Mann Whitney-U test.
FIG. 5: MCTR3 reprograms the arthritic monocyte-derive macrophage transcriptome. A-B) Arthritis was induced and prolonged in C57BL/6 mice by administering 100 μL K/B×N serum i.p. on day 0, 2 and 9. Mice were treated on day 12 i.v. with 2×10^6 monocytes isolated from arthritic mice and incubated either with vehicle (PBS+0.1% DMSO) or 10 μM RG108, a DNMT inhibitor, for 15 min and then with a vehicle (PBS+0.1% EtOH) or 1 nM MCTR3 for 90 min (37° C.). Disease course was monitored daily by assessing A) clinical scores and B) oedema. Results are mean±SEM and expressed as percent change from day of treatment. n=10 mice per group. Statistical differences were evaluated using Two-way ANOVA. (C-E) K/B×N serum (100 μL, i.p.) was administered to mice on days 0, 2 and 9 to induce and prolong inflammatory arthritis. On day 12, mice were treated i.v. with 2×10^6 monocytes isolated from arthritic mice that were previously incubated with either vehicle (PBS+0.1% EtOH) or 1 nM MCTR3 for 90 min. Cells were isolated from paw joints on day 22, sorted for CD45^+ cells and single cell RNA sequencing was performed. […] Results are from n=4 mice per group. (F-G) Monocytes were isolated from human healthy volunteers, these cells were then incubated with GM-CSF (7 days, 37° C.) then with either Vehicle or MCTR3 (1 nM, 37° C.). Cells were lysed and the phosphoproteome determined using mass spectrometry. […]

[1] = 200 μg nor-NOHA i.p. daily for 10 days from day 12
[2] = 200 μg nor-NOHA i.p. daily, mice given MCTR3-reprogrammed monocytes

**Q.** `N=C(NO)NCC[C@H](N)C(=O)O` [nor-NOHA, N^ω-hydroxy-nor-L-arginine] was tested. Which “clinical scores in mice given MCTR3-reprogrammed monocytes” value [1] did it give?
**A.** increase

**Q.** What about the “oedema in mice given MCTR3-reprogrammed monocytes” value [1] of the same compound?
**A.** increase

**Q.** And the “upregulation of Dbl in PKH67+ CD64+ cells” value [2]?
**A.** reversed

**Q.** And the “upregulation of TGF-β1 in PKH67+ CD64+ cells” value [2]?
**A.** reversed
